# In publication PMC2748101, “Transcriptome analysis of the responses of Staphylococcus aureus to antimicrobial peptides and characterization of the roles of vraDE and vraSR in antimicrobial resistance” (BMC Genomics, 2009):
# Where two headings read alike, the source gives them in different places. Where a SMILES comes first, the peptide text is derived from it. Bridges are numbered along the chain shown (N, C = ends). [ ]: non-standard residue; d: D form. The star is where a group is joined. Ileψ(thiazoline)Cys = CC[C@H](C)[C@H](N)C1=N[C@H](C(=O)*)CS1; dOrn = NCCC[C@@H](N)C(=O)O
# What was measured:
# [1] = system: ΔvraDE/ RN4220; details: Mueller-Hinton broth, 16-24 h, 37°C, two-fold dilution series, performed twice
# [2] = system: ΔvraSR/ RN4220; details: Mueller-Hinton broth, 16-24 h, 37°C, two-fold dilution series, performed twice
# [3] = system: S. aureus Newman; assay: qRT-PCR of gene induction in treated wild-type cells; format: cell-based, Staphylococcus aureus; details: 10 min; for Fold induction SA0205 / Fold induction groEL / Fold induction prsA / Fold induction vraD: 5 × MIC (temporin-L-NH2 subinhibitory 2 μg/ml, pentaglycine 20 μg/ml), treated/untreated, mean of three experiments (SD)
# [4] = system: S. aureus Newman
# [5] = system: ΔvraSR/S. aureus Newman; details: for MIC: ΔvraSR/S. aureus Newman, 16-24 h, 37°C, two-fold dilution series, performed twice
# [6] = system: ΔvraDE/S. aureus Newman; details: Mueller-Hinton broth; for MIC: ΔvraDE/S. aureus Newman, 16-24 h, 37°C, two-fold dilution series, performed twice
# [7] = system: S. aureus RN4220; details: Mueller-Hinton broth, 16-24 h, 37°C, two-fold dilution series, performed twice
# [8] = system: wild-type S. aureus Newman; format: cell-based, Staphylococcus aureus
# [9] = system: ΔvraSR/ RN4220; assay: microbe, parasite or virus in culture; details: Staphylococcus aureus
# [10] = system: ΔvraDE/ RN4220; assay: microbe, parasite or virus in culture; details: Staphylococcus aureus
# [11] = system: ΔvraSR/S. aureus Newman; assay: microbe, parasite or virus in culture; details: Staphylococcus aureus
# [12] = system: S. aureus RN4220; assay: microbe, parasite or virus in culture; details: Staphylococcus aureus
# [13] = system: ΔvraDE/S. aureus Newman; assay: microbe, parasite or virus in culture; details: Staphylococcus aureus
# [14] = S. aureus Newman, Mueller-Hinton broth, 16-24 h, 37°C, two-fold dilution series, performed twice
compound,measurement,setting,value
CC[C@H](C)[C@H](N)C1=N[C@H](C(=O)N[C@@H](CC(C)C)C(=O)N[C@H](CCC(=O)O)C(=O)N[C@H](C(=O)N[C@H]2CCCCNC(=O)[C@H](CC(N)=O)NC(=O)[C@@H](CC(=O)O)NC(=O)[C@H](Cc3cnc[nH]3)NC(=O)[C@@H](Cc3ccccc3)NC(=O)[C@H]([C@@H](C)CC)NC(=O)[C@@H](CCCN)NC2=O)[C@@H](C)CC)CS1 [Bacitracin] ({Ileψ(thiazoline)Cys}-L[dE]IK[dOrn]I[dF]H[dD]N; lactam 4-C),MIC,[1],2.5 µg/mL
same,MIC,[2],5 µg/mL
same,Fold induction SA0205,[3],51.4 (0.8) fold
same,Fold induction groEL,[3],3.6 (0.1) fold
same,Fold induction prsA,[3],27.9 (4.5) fold
same,Fold induction vraD,[3],467.5 (15.3) fold
same,Fold induction SA0205,[3]; listed as bacitracin,30-50 fold
same,Fold induction prsA,[3]; listed as bacitracin,30-50 fold
same,Fold induction vraD,[3]; listed as bacitracin,~500 fold
same,MIC,[4]; [14],20 µg/mL
same,"Difference in MIC (increased sensitivity), ΔvraSR mutant versus wild-type",[5]; Mueller-Hinton broth,4 fold
same,MIC,[5]; Mueller-Hinton broth,5 µg/mL
same,"Difference in MIC, ΔvraDE mutant versus wild-type",[6],about 10 fold
same,MIC,[6],2.5 µg/mL
same,MIC,[7],20 µg/mL
CCCCCCCCCC(=O)N[C@@H](Cc1c[nH]c2ccccc12)C(=O)N[C@H](CC(N)=O)C(=O)N[C@@H](CC(=O)O)C(=O)N[C@@H]1C(=O)NCC(=O)N[C@@H](CCCN)C(=O)N[C@@H](CC(=O)O)C(=O)N[C@H](C)C(=O)N[C@@H](CC(=O)O)C(=O)NCC(=O)N[C@H](CO)C(=O)N[C@@H]([C@H](C)CC(=O)O)C(=O)N[C@@H](CC(=O)c2ccccc2N)C(=O)O[C@@H]1C [Daptomycin],MIC,[1],2.5 µg/mL
same,MIC,[2],2.5 µg/mL
same,MIC,[4]; [14],2.5 µg/mL
same,Effect of the ΔvraSR mutation on sensitivity,"[5]; MIC, 100%, 50% (LL-37, nisin, Pep5) or 25% (hBD3) Mueller-Hinton broth",did not affect the sensitivity
same,MIC,[5]; Mueller-Hinton broth,2.5 µg/mL
same,MIC,[6],2.5 µg/mL
same,MIC,[7],2.5 µg/mL
O=C(O)CN(CCOCCOCCN(CC(=O)O)CC(=O)O)CC(=O)O [EGTA],Growth of wild-type strain in the presence of the antimicrobial,[8],grew significantly
CN[C@H](CC(C)C)C(=O)N[C@H]1C(=O)N[C@@H](CC(N)=O)C(=O)N[C@H]2C(=O)N[C@H]3C(=O)N[C@H](C(=O)N[C@H](C(=O)O)c4cc(O)cc(O)c4-c4cc3ccc4O)[C@H](O)c3ccc(c(Cl)c3)Oc3cc2cc(c3O[C@@H]2O[C@H](CO)[C@@H](O)[C@H](O)[C@H]2O[C@H]2C[C@](C)(N)[C@H](O)[C@H](C)O2)Oc2ccc(cc2Cl)[C@H]1O [Vancomycin],MIC,[9],0.5 µg/mL
same,MIC,[4],1 µg/mL
same,MIC,[10],1 µg/mL
same,MIC,[11],1 µg/mL
same,MIC,[12],1 µg/mL
same,MIC,[13],1 µg/mL
CO/N=C(\C(=O)N[C@@H]1C(=O)N2C(C(=O)O)=C(COC(C)=O)CS[C@H]12)c1csc(N)n1 [cefotaxime],Growth of wild-type strain in the presence of the antimicrobial,[8],grew significantly
CN(C)CCCN1c2ccccc2Sc2ccc(Cl)cc21 [chlorpromazine],Growth of wild-type strain in the presence of the antimicrobial,[8],grew significantly
A(D-Glu)K(D-Ala)GGGGGA(D-Glu)K(D-Ala) [Pentaglysin],"Induction of vraD, SA0205, prsA and groEL (in words)",[3]; 20 μg/ml,did not induce any of the four genes
same,Fold induction SA0205,[3],1.3 (0.1) fold
same,Fold induction groEL,[3],1.1 (0.0) fold
same,Fold induction prsA,[3],1.3 (0.0) fold
same,Fold induction vraD,[3],1.0 (0.0) fold
same,Antimicrobial activity at the concentration used,[4]; 20 μg/ml,not antimicrobial
